Results on 9 compounds are retold here after patent publication US4569907A, “Thiopeptolide substrates for vertebrate collagenase” (Monsanto Company, priority 1984, dated 1986).

Non-standard residues stand in square brackets, D forms with d. Residues, ends and D or L forms follow the SMILES beside them. *: point of attachment. Dnp = O=[N+]([O-])c1ccc(*)c([N+](=O)[O-])c1

Common to all, as to format: biochemical
The target in one assay is T1, collagenase (Homo sapiens, UniProt P03956).
T1 construct: endogenous in cells; host or cells: normal human skin fibroblasts (culture media)
T1 sequence (P03956 100-469): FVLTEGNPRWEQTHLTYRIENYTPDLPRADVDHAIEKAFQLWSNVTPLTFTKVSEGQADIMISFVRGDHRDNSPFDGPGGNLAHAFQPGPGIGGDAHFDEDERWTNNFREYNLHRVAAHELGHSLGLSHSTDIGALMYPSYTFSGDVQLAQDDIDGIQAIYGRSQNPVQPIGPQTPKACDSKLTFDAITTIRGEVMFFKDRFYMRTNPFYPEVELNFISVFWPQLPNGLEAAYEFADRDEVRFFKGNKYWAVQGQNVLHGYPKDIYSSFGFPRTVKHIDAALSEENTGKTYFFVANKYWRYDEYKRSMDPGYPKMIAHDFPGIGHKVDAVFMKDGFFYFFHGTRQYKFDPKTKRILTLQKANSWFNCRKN
As to the kind of experiment: HPLC assay of substrate hydrolysis by collagenase (comparison substrates without chromophores). As to conditions: Table I Comparison of Substrate; assayed by HPLC. The protocol:
(§1) The following Table I sets forth the relative rates of hydrolysis in the above spectrophotometric assay using ther above thiopeptolides as substrates in comparison to the rates of hydrolysis assayed by High Performance Liquid Chromatography (HPLC) of two commercially available substrates for collagenase and two other substrates described in copending application Ser. No. 450,318, cited hereinbefore.

The target in assay [1] is T2, Collagenase from culture media of normal human skin fibroblasts (Homo sapiens, UniProt P03956).
T2 construct: endogenous in cells; host or cells: normal human skin fibroblasts (culture media)
T2 sequence (P03956 100-469): T1 sequence (P03956 100-469)
As to the kind of experiment: Spectrophotometric assay for collagenase: hydrolysis of thiopeptolide substrates with 4,4'-dithiodipyridine or Ellman's reagent. To be noted: for Relative Rate (of hydrolysis): Table I Comparison of Substrate, spectrophotometric assay, pH 6.5-7.0, initial rates. The protocol:
Collagenase was prepared from culture media of normal human skin fibroblasts substantially according to the procedure of Stricklin et al., Biochem. 16 1607 (1977). The enzyme (23 μg/ml in 0.5 M tris buffer [tris(hydroxymethyl) amino methane], 0.01 M CaCl2, pH 7.5) was activated by incubating 10 μl samples with one μl of trypsin (10 mg/ml in 1 mM HCl) for twenty minutes at room temperature followed by addition of 20 μl of soybean trypsin inhibitor (5 mg/ml in 0.05 M tris buffer, 0.01 M CaCl2, pH 7.5).
The activated enzyme was diluted 100 to 2000 fold for use with each of the following substrate thiopeptolides:
(§2) The spectrophotometric assay was carried out at substrate concentrations of from 0.01 mM to 5 mM in 0.05 M HEPES buffer (N-2-hydroxyethylpiperizine-N'-2-ethanesulfonic acid) with 0.01 M CaCl2 at a pH of 6.5-7.0 and containing 0.5 mM to 1.0 mM 4,4'-dithiodipyridine (or Ellman's Reagent). The total reaction volume was 250 μl including 10 to 100 μl of the diluted activated enzyme. The reaction solutions were placed in 10 mm pathlength, self-masking microcuvettes and the hydrolysis followed using a Gilford model 250 spectrophotometer at 324 λ(410 λ for Ellman's Reagent) and equipped with a Gilford model 6051 recorder. The initial rates were limited to the first 5% of reaction and were corrected for non-enzymatic hydrolysis, which never exceeded 25% of the total reaction at pH 6.5-7.0. The 4,4'dithiodipyridine (or Ellman's Reagent) at 0.5 mM was in large excess under the initial rate assay conditions and was not rate limiting.
as §1
On the technique in general: Ellman's reagent forms a yellow product with free thiols.

Another assay has as its system Elastase. As to the kind of experiment: Enzyme selectivity for thiopeptolide, spectrophotometric hydrolysis. As to conditions: Table II Enzyme Selectivity. The protocol: as §2
(§3) The ability of five proteolytic enzymes other than collagenase to cleave the synthetic substrate Ac-Pro-Leu-Gly-S-Leu-Leu-Gly-OC2 H5 was tested by hydrolysis and following spectrophotometrically as in Example 14. The following Table II sets forth the relative selectivity of these enzymes in comparison to vertebrate collagenase.

Another assay has as its target α-Chymotrypsin (Bos taurus, UniProt P00766). The assay is described as above. To be noted: Table II Enzyme Selectivity. On the procedure:
as §2, §3

The next assay addresses T3, Carboxypeptidase Y (Saccharomyces cerevisiae, UniProt P00729).
T3 sequence (P00729 112-532): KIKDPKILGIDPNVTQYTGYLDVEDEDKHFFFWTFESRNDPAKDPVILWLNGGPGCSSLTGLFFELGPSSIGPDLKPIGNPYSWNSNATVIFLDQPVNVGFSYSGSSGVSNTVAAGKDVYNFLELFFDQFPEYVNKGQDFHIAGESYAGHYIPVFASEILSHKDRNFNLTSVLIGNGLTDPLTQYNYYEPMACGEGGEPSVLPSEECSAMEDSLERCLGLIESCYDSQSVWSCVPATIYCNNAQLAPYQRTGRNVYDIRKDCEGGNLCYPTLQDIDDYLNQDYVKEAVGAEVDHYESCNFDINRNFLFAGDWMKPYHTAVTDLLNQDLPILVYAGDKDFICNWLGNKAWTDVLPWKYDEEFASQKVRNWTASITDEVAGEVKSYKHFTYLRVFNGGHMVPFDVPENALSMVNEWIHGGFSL
The assay is described as above. As to conditions: Table II Enzyme Selectivity. On the procedure:
as §2, §3

For another assay, the target named is T4, Trypsin (Bos taurus, UniProt P00760).
T4 sequence (P00760 24-246): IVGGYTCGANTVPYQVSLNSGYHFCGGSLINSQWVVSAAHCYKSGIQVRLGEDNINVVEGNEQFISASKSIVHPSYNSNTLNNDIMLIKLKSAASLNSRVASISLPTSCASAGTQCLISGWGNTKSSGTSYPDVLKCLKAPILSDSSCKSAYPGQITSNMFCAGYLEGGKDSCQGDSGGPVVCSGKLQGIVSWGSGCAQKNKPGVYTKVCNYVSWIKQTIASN
Described as above. To be noted: Table II Enzyme Selectivity. On the procedure: as §2, §3

The subject of a further assay is Kallikrein. The description is as above. As to conditions: Table II Enzyme Selectivity. The protocol: as §2, §3
The target in the next assay is T5, vertebrate collagenase (Homo sapiens, UniProt P03956).
T5 sequence (P03956 100-469): T1 sequence (P03956 100-469)
In words: Inhibition of vertebrate collagenase (I50, median inhibitory concentration).

In the case of `CCOC(=O)CNC(=O)[C@H](C)NC(=O)[C@H](CC(C)C)NC(=O)CNC(=O)[C@H](CC(C)C)NC(=O)[C@@H]1CCCN1C(C)=O` [Ac--Pro--Leu--Gly--Leu--Ala--Gly--OC2 H5] (Ac-PLGLAG-OEt), the “Relative Rate (of hydrolysis)” value at collagenase was determined as 110.

In the case of `CCOC(=O)CNC(=O)[C@H](CC(C)C)NC(=O)[C@H](CC(C)C)NC(=O)CNC(=O)[C@H](CC(C)C)NC(=O)[C@@H]1CCCN1C(C)=O` [Ac--Pro--Leu--Gly--Leu--Leu--Gly--OC2 H5] (Ac-PLGLLG-OEt), the “Relative Rate (of hydrolysis)” value at collagenase is listed as 250.

For the compound `CCOC(=O)CNC(=O)[C@H](C)NC(=O)[C@H](CC(C)C)SC(=O)CNC(=O)[C@H](C)NC(=O)[C@@H]1CCCN1C(C)=O` [Ac-Pro-Ala-Gly-S-Leu-Ala-Gly-OC2 H5], the “Relative Rate (of hydrolysis)” value in assay [1] is listed as 950.

For `CCOC(=O)CNC(=O)[C@H](Cc1ccccc1)NC(=O)[C@H](CC(C)C)SC(=O)CNC(=O)[C@H](C)NC(=O)[C@@H]1CCCN1C(C)=O` [Ac-Pro-Ala-Gly-S-Leu-Phe-Gly-OC2 H5], the “Relative Rate (of hydrolysis)” value in assay [1] came out at 2800.

Regarding `CCOC(=O)CNC(=O)[C@H](CC(C)C)NC(=O)[C@H](CC(C)C)SC(=O)CNC(=O)[C@H](CC(C)C)NC(=O)[C@@H]1CCCN1C(C)=O` [Ac-Pro-Leu-Gly-S-Leu-Leu-Gly-OC2 H5], in assay [1], the “Relative Rate (of hydrolysis)” value came to 8800. The “Relative Rate” value in assay [1] (Table II Enzyme Selectivity, Vertebrate Collagenase, same as in Example 14) amounted to 260; in the assay with Elastase, 12; on α-Chymotrypsin it was 2.0; on Carboxypeptidase Y, 0.03; at Trypsin, 0.07; in the assay with Kallikrein, 4.3.

For the compound `CCOC(=O)CNC(=O)[C@H](Cc1ccccc1)NC(=O)[C@H](CC(C)C)SC(=O)CNC(=O)[C@H](CC(C)C)NC(=O)[C@@H]1CCCN1C(C)=O` [Ac-Pro-Leu-Gly-S-Leu-Phe-Gly-OC2 H5], the “Relative Rate (of hydrolysis)” value in assay [1] was 5900.

The IC50 is the concentration that gives 50% inhibition. Low values mean greater potency in that assay, high ones weaker potency in that assay. Consider `CCOC(=O)CNC(=O)[C@H](CC(C)C)NC(=O)[C@@H](S)CC(C)C` [HS-Leu-Leu-Gly-OC2 H5], for which, on vertebrate collagenase, the IC50 was 1000 nM.

On to “DNP-Pro-Gln-Gly-Ile-Ala-Gly-Gln-D-Arg-OH (Dnp-PQGIAGQ[dR]-OH; SMILES CC[C@H](C)[C@H](NC(=O)CNC(=O)[C@H](CCC(N)=O)NC(=O)[C@@H]1CCCN1c1ccc([N+](=O)[O-])cc1[N+](=O)[O-])C(=O)N[C@@H](C)C(=O)NCC(=O)N[C@@H](CCC(N)=O)C(=O)N[C@H](CCCNC(=N)N)C(=O)O) [commercially available synthetic collagenase substrate, Peninsula Laboratories; DNP=Dinitrophenyl]”, for which the “Relative Rate (of hydrolysis)” value with collagenase is listed as 5.

Consider “DNP-Pro-Leu-Gly-Ile-Ala-Gly-Arg-NH2 (Dnp-PLGIAGR-NH2; SMILES CC[C@H](C)[C@H](NC(=O)CNC(=O)[C@H](CC(C)C)NC(=O)[C@@H]1CCCN1c1ccc([N+](=O)[O-])cc1[N+](=O)[O-])C(=O)N[C@@H](C)C(=O)NCC(=O)N[C@@H](CCCNC(=N)N)C(N)=O) [commercially available synthetic collagenase substrate, Peninsula Laboratories; DNP=Dinitrophenyl]”, for which, in the assay with collagenase, the “Relative Rate (of hydrolysis)” value is listed as 25.
